Test results published in ChEMBL document CHEMBL1687837, “Roles of residues Cys69, Asn104, Phe160, Gly232, Ser237, and Asp240 in extended-spectrum beta-lactamase Toho-1” (2011).
≈ marks a conversion by molar mass, not a printed value.

B1: Beta-lactamase Toho-1 (Escherichia coli), Q47066 (protein)
chain: MMTQSIRRSMLTVMATLPLLFSSATLHAQANSVQQQLEALEKSSGGRLGVALINTADNSQILYRADERFAMCSTSKVMAAAAVLKQSESDKHLLNQRVEIKKSDLVNYNPIAEKHVNGTMTLAELGAAALQYSDNTAMNKLIAHLGGPDKVTAFARSLGDETFRLDRTEPTLNTAIPGDPRDTTTPLAMAQTLKNLTLGKALAETQRAQLVTWLKGNTTGSASIRAGLPKSWVVGDKTGSGDYGTTNDIAVIWPENHAPLVLVTYFTQPEQKAERRRDILAAAAKIVTHGF

Key:
Escherichia coli [1] = assay: Activity of Escherichia coli beta-lactamase Toho-1 […] mutant assessed as compound hydrolysis by spectrophotometry
Escherichia coli [2] = assay: Activity of Escherichia coli beta-lactamase Toho-1 D240S mutant assessed as compound hydrolysis by spectrophotometry
Escherichia coli [3] = assay: Activity of Escherichia coli beta-lactamase Toho-1 D240A mutant assessed as compound hydrolysis by spectrophotometry
Escherichia coli [4] = assay: Activity of Escherichia coli beta-lactamase Toho-1 C69A mutant assessed as compound hydrolysis by spectrophotometry
Escherichia coli [5] = assay: Activity of Escherichia coli beta-lactamase Toho-1 F160T mutant assessed as compound hydrolysis by spectrophotometry
Escherichia coli [6] = assay: Activity of Escherichia coli beta-lactamase Toho-1 G232A mutant assessed as compound hydrolysis by spectrophotometry
Escherichia coli [7] = assay: Ratio of Kcat to Km for Escherichia coli beta-lactamase Toho-1 N104A mutant assessed as compound hydrolysis by spectrophotometry
Escherichia coli [8] = assay: Ratio of Kcat to Km for Escherichia coli beta-lactamase Toho-1 N104D mutant assessed as compound hydrolysis by spectrophotometry
Escherichia coli [9] = assay: Ratio of Kcat to Km for Escherichia coli beta-lactamase Toho-1 […] mutant assessed as compound hydrolysis by spectrophotometry
Escherichia coli [10] = assay: Ratio of Kcat to Km for Escherichia coli beta-lactamase Toho-1 D240S mutant assessed as compound hydrolysis by spectrophotometry
Escherichia coli [11] = assay: Ratio of Kcat to Km for Escherichia coli beta-lactamase Toho-1 D240A mutant assessed as compound hydrolysis by spectrophotometry
Escherichia coli [12] = assay: Ratio of Kcat to Km for Escherichia coli beta-lactamase Toho-1 C69A mutant assessed as compound hydrolysis by spectrophotometry
Escherichia coli [13] = assay: Ratio of Kcat to Km for Escherichia coli beta-lactamase Toho-1 F160T mutant assessed as compound hydrolysis by spectrophotometry
Escherichia coli [14] = assay: Ratio of Kcat to Km for Escherichia coli beta-lactamase Toho-1 G232A mutant assessed as compound hydrolysis by spectrophotometry
Escherichia coli [15] = assay: Antibacterial activity against Escherichia coli AS226 carrying pBSD-H2 after 18 hrs by broth microdilution method; type: functional; details: AS226, 18 h
Escherichia coli [16] = assay: Antibacterial activity against Escherichia coli AS226 carrying pBSDN104A mutant after 18 hrs by broth microdilution method; type: functional; details: AS226, 18 h
Escherichia coli [17] = assay: Antibacterial activity against Escherichia coli AS226 carrying pBSDN104D mutant after 18 hrs by broth microdilution method; type: functional; details: AS226, 18 h
Escherichia coli [18] = assay: Antibacterial activity against Escherichia coli AS226 carrying pBSDS237A mutant after 18 hrs by broth microdilution method; type: functional; details: AS226, 18 h
Escherichia coli [19] = assay: Antibacterial activity against Escherichia coli AS226 carrying pBSDD240S mutant after 18 hrs by broth microdilution method; type: functional; details: AS226, 18 h
Escherichia coli [20] = assay: Antibacterial activity against Escherichia coli AS226 carrying pBSDD240A mutant after 18 hrs by broth microdilution method; type: functional; details: AS226, 18 h
Escherichia coli [21] = assay: Antibacterial activity against Escherichia coli AS226 carrying pBSDC69A mutant after 18 hrs by broth microdilution method; type: functional; details: AS226, 18 h
Escherichia coli [22] = assay: Antibacterial activity against Escherichia coli AS226 carrying pBSDF160T mutant after 18 hrs by broth microdilution method; type: functional; details: AS226, 18 h
Escherichia coli [23] = assay: Antibacterial activity against Escherichia coli AS226 carrying pBSD6 mutant after 18 hrs by broth microdilution method; type: functional; details: AS226, 18 h
Escherichia coli [24] = assay: Antibacterial activity against Escherichia coli AS226 after 18 hrs by broth microdilution method; type: functional; details: AS226, 18 h
Escherichia coli [25] = assay: Activity of Escherichia coli beta-lactamase Toho-1 N104D mutant assessed as compound hydrolysis by spectrophotometry
Escherichia coli [26] = assay: Activity of Escherichia coli beta-lactamase Toho-1 N104A mutant assessed as compound hydrolysis by spectrophotometry
[27] = substrate: CC(=O)OCC1=C(C(=O)O)N2C(=O)[C@@H](NC(=O)Cc3cccs3)[C@H]2SC1; assay: (§1) Activity of Escherichia coli wild type beta-lactamase Toho-1 assessed as compound hydrolysis by spectrophotometry
[28] = substrate: CC1(C)S[C@@H]2[C@H](NC(=O)[C@H](N)c3ccccc3)C(=O)N2[C@H]1C(=O)O; assay: as §1
[29] = substrate: CO/N=C(\C(=O)N[C@@H]1C(=O)N2C(C(=O)O)=C(COC(C)=O)CS[C@H]12)c1csc(N)n1; assay: as §1
[30] = substrate: CO/N=C(\C(=O)N[C@@H]1C(=O)N2C(C(=O)O)=C(CSc3cnns3)CS[C@H]12)c1csc(N)n1; assay: as §1
[31] = substrate: C[C@H]1[C@H](NC(=O)/C(=N\OC(C)(C)C(=O)O)c2csc(N)n2)C(=O)N1S(=O)(=O)O; assay: as §1
[32] = substrate: O=C(Cc1cccs1)N[C@@H]1C(=O)N2C(C(=O)[O-])=C(C[n+]3ccccc3)CS[C@H]12; assay: as §1
[33] = substrate: CC(=O)OCC1=C(C(=O)O)N2C(=O)[C@@H](NC(=O)Cc3cccs3)[C@H]2SC1; assay: (§2) Ratio of Kcat to Km for Escherichia coli wild type beta-lactamase Toho-1 assessed as compound hydrolysis by spectrophotometry
[34] = substrate: CO/N=C(\C(=O)N[C@@H]1C(=O)N2C(C(=O)O)=C(COC(C)=O)CS[C@H]12)c1csc(N)n1; assay: as §2
[35] = substrate: CO/N=C(\C(=O)N[C@@H]1C(=O)N2C(C(=O)O)=C(CSc3cnns3)CS[C@H]12)c1csc(N)n1; assay: as §2
[36] = substrate: C[C@H]1[C@H](NC(=O)/C(=N\OC(C)(C)C(=O)O)c2csc(N)n2)C(=O)N1S(=O)(=O)O; assay: as §2
[37] = substrate: O=C(Cc1cccs1)N[C@@H]1C(=O)N2C(C(=O)[O-])=C(C[n+]3ccccc3)CS[C@H]12; assay: as §2

Row | Molecule | Km (Escherichia coli [1]) | kcat (Escherichia coli [1]) | Km (Escherichia coli [2]) | kcat (Escherichia coli [2]) | Km (Escherichia coli [3]) | kcat (Escherichia coli [3]) | Km (Escherichia coli [4]) | kcat (Escherichia coli [4]) | Km (Escherichia coli [5]) | kcat (Escherichia coli [5]) | Km (Escherichia coli [6]) | kcat (Escherichia coli [6]) | kcat/Km (Escherichia coli [7]) | kcat/Km (Escherichia coli [8]) | kcat/Km (Escherichia coli [9]) | MIC (Escherichia coli [15]) | MIC (Escherichia coli [16]) | MIC (Escherichia coli [17]) | MIC (Escherichia coli [20]) | MIC (Escherichia coli [24]) | further results
1 | CO/N=C(\C(=O)N[C@@H]1C(=O)N2C(C(=O)O)=C(CSc3cnns3)CS[C@H]12)c1csc(N)n1 [CEFUZONAM] | 140 µM | 130 s⁻¹ | 220 µM | 430 s⁻¹ | 260 µM | 550 s⁻¹ | 240 µM | 560 s⁻¹ | 220 µM | 470 s⁻¹ | 190 µM | 630 s⁻¹ | 2.8 ×10⁵ /s/M | 5.7 ×10⁵ /s/M | 9.4 ×10⁵ /s/M | 2050 µg/mL (≈ 3990 µM) | 16 µg/mL (≈ 31.2 µM) | 64 µg/mL (≈ 125 µM) | 1020 µg/mL (≈ 1990 µM) | < 0.125 µg/mL | kcat/Km (Escherichia coli [10]): 2 ×10⁶ /s/M; kcat/Km (Escherichia coli [11]): 2.1 ×10⁶ /s/M; kcat/Km (Escherichia coli [12]): 2.3 ×10⁶ /s/M; kcat/Km (Escherichia coli [13]): 2.1 ×10⁶ /s/M; kcat/Km (Escherichia coli [14]): 3.3 ×10⁶ /s/M; MIC (Escherichia coli [18]): 1020 µg/mL (≈ 1990 µM); MIC (Escherichia coli [19]): 256 µg/mL (≈ 498 µM); MIC (Escherichia coli [21]): 2050 µg/mL (≈ 3990 µM); MIC (Escherichia coli [22]): 512 µg/mL (≈ 997 µM); MIC (Escherichia coli [23]): 2 µg/mL (≈ 3.89 µM)
2 | O=C(Cc1cccs1)N[C@@H]1C(=O)N2C(C(=O)[O-])=C(C[n+]3ccccc3)CS[C@H]12 [CEPHALORIDINE] | 270 µM | 320 s⁻¹ | 250 µM | 190 s⁻¹ | 200 µM | 140 s⁻¹ | 300 µM | 300 s⁻¹ | 430 µM | 470 s⁻¹ | 290 µM | 440 s⁻¹ | 2.2 ×10⁵ /s/M | 3 ×10⁵ /s/M | 1.2 ×10⁶ /s/M | 1020 µg/mL (≈ 2460 µM) | 32 µg/mL (≈ 77 µM) | 256 µg/mL (≈ 616 µM) | 1020 µg/mL (≈ 2460 µM) | 2 µg/mL (≈ 4.81 µM) | Km (Escherichia coli [25]): 400 µM; kcat (Escherichia coli [25]): 120 s⁻¹; Km (Escherichia coli [26]): 450 µM; kcat (Escherichia coli [26]): 99 s⁻¹; kcat/Km (Escherichia coli [10]): 7.6 ×10⁵ /s/M; kcat/Km (Escherichia coli [11]): 7.1 ×10⁵ /s/M; kcat/Km (Escherichia coli [12]): 1 ×10⁶ /s/M; kcat/Km (Escherichia coli [13]): 1.1 ×10⁶ /s/M; kcat/Km (Escherichia coli [14]): 1.5 ×10⁶ /s/M; MIC (Escherichia coli [18]): 2050 µg/mL (≈ 4930 µM); MIC (Escherichia coli [19]): 1020 µg/mL (≈ 2460 µM); MIC (Escherichia coli [21]): 1020 µg/mL (≈ 2460 µM); MIC (Escherichia coli [22]): 512 µg/mL (≈ 1230 µM); MIC (Escherichia coli [23]): 8 µg/mL (≈ 19.3 µM)
3 | CC(=O)OCC1=C(C(=O)O)N2C(=O)[C@@H](NC(=O)Cc3cccs3)[C@H]2SC1 [CEPHALOTHIN] | 77 µM | 370 s⁻¹ | 120 µM | 410 s⁻¹ | 98 µM | 320 s⁻¹ | 200 µM | 780 s⁻¹ | 170 µM | 690 s⁻¹ | 150 µM | 620 s⁻¹ | 1.2 ×10⁶ /s/M | 2.8 ×10⁶ /s/M | 4.8 ×10⁶ /s/M | 2050 µg/mL (≈ 5170 µM) | 512 µg/mL (≈ 1290 µM) | 2050 µg/mL (≈ 5170 µM) | 2050 µg/mL (≈ 5170 µM) | 2 µg/mL (≈ 5.04 µM) | Km (Escherichia coli [25]): 70 µM; kcat (Escherichia coli [25]): 200 s⁻¹; Km (Escherichia coli [26]): 140 µM; kcat (Escherichia coli [26]): 180 s⁻¹; kcat/Km (Escherichia coli [10]): 3.3 ×10⁶ /s/M; kcat/Km (Escherichia coli [11]): 3.3 ×10⁶ /s/M; kcat/Km (Escherichia coli [12]): 4 ×10⁶ /s/M; kcat/Km (Escherichia coli [13]): 4.1 ×10⁶ /s/M; kcat/Km (Escherichia coli [14]): 4.1 ×10⁶ /s/M; MIC (Escherichia coli [18]): 2050 µg/mL (≈ 5170 µM); MIC (Escherichia coli [19]): 2050 µg/mL (≈ 5170 µM); MIC (Escherichia coli [21]): 2050 µg/mL (≈ 5170 µM); MIC (Escherichia coli [22]): 2050 µg/mL (≈ 5170 µM); MIC (Escherichia coli [23]): 128 µg/mL (≈ 323 µM)
4 | C[C@@H](O)[C@H]1C(=O)N2C(C(=O)O)=C(SCCNC=N)C[C@H]12 [IMIPENEM ANHYDROUS] |  |  |  |  |  |  |  |  |  |  |  |  |  |  |  | < 0.125 µg/mL | 0.125 µg/mL (≈ 0.418 µM) | 0.125 µg/mL (≈ 0.418 µM) | 0.125 µg/mL (≈ 0.418 µM) | < 0.125 µg/mL | 
5 | B1 |  |  |  |  |  |  |  |  |  |  |  |  |  |  |  |  |  |  |  |  | Km [27]: 190 µM; kcat [27]: 790 s⁻¹; Km [28]: 24 µM; kcat [28]: 42 s⁻¹; Km [29]: 210 µM; kcat [29]: 390 s⁻¹; Km [30]: 150 µM; kcat [30]: 530 s⁻¹; Km [31]: 45 µM; kcat [31]: 8.3 s⁻¹; Km [32]: 280 µM; kcat [32]: 420 s⁻¹; kcat/Km [33]: 4.3 ×10⁶ /s/M; kcat/Km [34]: 1.9 ×10⁶ /s/M; kcat/Km [35]: 3.5 ×10⁶ /s/M; kcat/Km [36]: 1.9 ×10⁵ /s/M; kcat/Km [37]: 1.5 ×10⁶ /s/M
